According to ChEMBL document CHEMBL4020706, “Design, synthesis and biological evaluation of novel hydroxamates and 2-aminobenzamides as potent histone deacetylase inhibitors and antitumor agents” (Eur J Med Chem, 2017):

Assays:
HCT-116 = experiment: Antiproliferative activity against human HCT116 cells after 72 hrs by CCK-8 reagent based assay; type: functional, cell-based; settings: HCT-116, 72 h
A549 [1] = experiment: Antiproliferative activity against human A549 cells after 72 hrs by CCK-8 reagent based assay; type: functional, cell-based; settings: A549, 72 h
HepG2 = experiment: Antiproliferative activity against human HepG2 cells after 72 hrs by CCK-8 reagent based assay; type: functional, cell-based; settings: HepG2, 72 h
MGC-803 = experiment: Antiproliferative activity against human MGC803 cells after 72 hrs by CCK-8 reagent based assay; type: functional, cell-based; settings: MGC-803, 72 h
A549 [2] = experiment: Cell cycle arrest in human A549 cells assessed as accumulation at G0/G1 phase at 2 umol/L after 48 hrs by propidium iodide staining-based flow cytometry (reference value: 75.77%); type: functional
A549 [3] = experiment: Cell cycle arrest in human A549 cells assessed as accumulation at G2/M phase at 16 umol/L after 48 hrs by propidium iodide staining-based flow cytometry (reference value: 9.1%); type: functional; settings: at 16 µM
A549 [4] = experiment: Cell cycle arrest in human A549 cells assessed as accumulation at S phase at 2 umol/L after 48 hrs by propidium iodide staining-based flow cytometry (reference value: 15.13%); type: functional
A549 [5] = experiment: Induction of apoptosis in human A549 cells assessed as early apoptotic cells at 8 umol/L after 48 hrs by Alexa Fluor 488 Annexin/propidium iodide staining-based flow cytometry (reference value: 3.41%); type: functional
A549 [6] = experiment: Cell cycle arrest in human A549 cells assessed as accumulation at S phase at 16 umol/L after 48 hrs by propidium iodide staining-based flow cytometry (reference value: 15.13%); type: functional
A549 [7] = experiment: Induction of apoptosis in human A549 cells assessed as viable cells at 4 umol/L after 48 hrs by Alexa Fluor 488 Annexin/propidium iodide staining-based flow cytometry (reference value: 92.79%); type: functional; settings: A549, 48 h, read-out: Activity
A549 [8] = experiment: Induction of apoptosis in human A549 cells assessed as late apoptotic cells at 8 umol/L after 48 hrs by Alexa Fluor 488 Annexin/propidium iodide staining-based flow cytometry (reference value: 2.93%); type: functional
A549 [9] = experiment: Induction of apoptosis in human A549 cells assessed as early apoptotic cells at 4 umol/L after 48 hrs by Alexa Fluor 488 Annexin/propidium iodide staining-based flow cytometry (reference value: 3.41%); type: functional
A549 [10] = experiment: Induction of apoptosis in human A549 cells assessed as viable cells at 8 umol/L after 48 hrs by Alexa Fluor 488 Annexin/propidium iodide staining-based flow cytometry (reference value: 92.79%); type: functional; settings: A549, 48 h, read-out: Activity
A549 [11] = experiment: Cell cycle arrest in human A549 cells assessed as accumulation at G2/M phase at 2 umol/L after 48 hrs by propidium iodide staining-based flow cytometry (reference value: 9.1%); type: functional; settings: at 2 µM
A549 [12] = experiment: Cell cycle arrest in human A549 cells assessed as accumulation at G0/G1 phase at 16 umol/L after 48 hrs by propidium iodide staining-based flow cytometry (reference value: 75.77%); type: functional
A549 [13] = experiment: Induction of apoptosis in human A549 cells assessed as late apoptotic cells at 4 umol/L after 48 hrs by Alexa Fluor 488 Annexin/propidium iodide staining-based flow cytometry (reference value: 2.93%); type: functional
A549 [14] = experiment: Induction of apoptosis in human A549 cells assessed as necrotic cells at 4 umol/L after 48 hrs by Alexa Fluor 488 Annexin/propidium iodide staining-based flow cytometry (reference value: 0.87%); type: functional
A549 [15] = experiment: Induction of apoptosis in human A549 cells assessed as necrotic cells at 8 umol/L after 48 hrs by Alexa Fluor 488 Annexin/propidium iodide staining-based flow cytometry (reference value: 0.87%); type: functional
Histone deacetylase 2 = Histone deacetylase 2 (Homo sapiens, UniProt Q92769); experiment: Inhibition of human recombinant HDAC2 using Fluor de Lys green as substrate by fluorometric assay
Sequence of Histone deacetylase 2 (Q92769 whole entry): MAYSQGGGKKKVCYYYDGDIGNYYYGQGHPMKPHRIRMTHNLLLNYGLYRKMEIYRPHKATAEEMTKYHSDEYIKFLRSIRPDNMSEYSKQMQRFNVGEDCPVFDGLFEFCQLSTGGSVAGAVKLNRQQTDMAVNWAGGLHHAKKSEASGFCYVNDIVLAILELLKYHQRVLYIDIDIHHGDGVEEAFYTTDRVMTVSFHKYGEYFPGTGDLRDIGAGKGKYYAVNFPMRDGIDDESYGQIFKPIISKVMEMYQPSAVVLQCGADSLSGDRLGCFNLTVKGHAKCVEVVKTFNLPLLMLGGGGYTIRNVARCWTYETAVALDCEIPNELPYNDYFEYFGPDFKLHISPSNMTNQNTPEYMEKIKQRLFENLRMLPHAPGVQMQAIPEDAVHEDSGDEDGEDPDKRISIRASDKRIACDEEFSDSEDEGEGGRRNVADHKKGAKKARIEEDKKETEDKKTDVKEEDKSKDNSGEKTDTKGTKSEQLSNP

A549 [16] = experiment: Cell cycle arrest in human A549 cells assessed as accumulation at G2/M phase after 48 hrs by propidium iodide staining-based flow cytometry; type: functional
Histone deacetylase 1 = Histone deacetylase 1 (Homo sapiens, UniProt Q13547); experiment: Inhibition of human recombinant HDAC1 using Fluor de Lys as substrate by fluorometric assay
Sequence of Histone deacetylase 1 (Q13547 whole entry): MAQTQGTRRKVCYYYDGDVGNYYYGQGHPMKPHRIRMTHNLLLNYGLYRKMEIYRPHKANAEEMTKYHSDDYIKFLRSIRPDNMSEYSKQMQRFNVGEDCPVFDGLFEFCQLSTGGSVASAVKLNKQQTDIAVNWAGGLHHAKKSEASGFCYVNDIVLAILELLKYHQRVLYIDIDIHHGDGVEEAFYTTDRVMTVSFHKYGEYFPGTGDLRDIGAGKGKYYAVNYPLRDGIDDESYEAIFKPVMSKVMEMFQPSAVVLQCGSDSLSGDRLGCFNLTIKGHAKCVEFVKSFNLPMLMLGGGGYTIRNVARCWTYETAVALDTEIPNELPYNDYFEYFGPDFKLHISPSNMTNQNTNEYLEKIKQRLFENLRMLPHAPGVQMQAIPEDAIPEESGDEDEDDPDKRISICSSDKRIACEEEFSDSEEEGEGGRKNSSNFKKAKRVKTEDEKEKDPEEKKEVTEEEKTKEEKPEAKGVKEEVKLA

A549 [17] = experiment: Inhibition of colony formation in human A549 cells after 7 days by crystal violet staining based assay; type: functional, cell-based
A549 [18] = experiment: Induction of apoptosis in human A549 cells after 48 hrs by Alexa Fluor 488 Annexin/propidium iodide staining-based flow cytometry; type: functional, cell-based
[19] = molecular target: T1, Protein deacetylase HDAC6 (Homo sapiens, UniProt Q9UBN7); experiment: Inhibition of human recombinant HDAC6 using Fluor de Lys as substrate after 60 mins by fluorometric assay
T1 sequence (Q9UBN7 whole entry): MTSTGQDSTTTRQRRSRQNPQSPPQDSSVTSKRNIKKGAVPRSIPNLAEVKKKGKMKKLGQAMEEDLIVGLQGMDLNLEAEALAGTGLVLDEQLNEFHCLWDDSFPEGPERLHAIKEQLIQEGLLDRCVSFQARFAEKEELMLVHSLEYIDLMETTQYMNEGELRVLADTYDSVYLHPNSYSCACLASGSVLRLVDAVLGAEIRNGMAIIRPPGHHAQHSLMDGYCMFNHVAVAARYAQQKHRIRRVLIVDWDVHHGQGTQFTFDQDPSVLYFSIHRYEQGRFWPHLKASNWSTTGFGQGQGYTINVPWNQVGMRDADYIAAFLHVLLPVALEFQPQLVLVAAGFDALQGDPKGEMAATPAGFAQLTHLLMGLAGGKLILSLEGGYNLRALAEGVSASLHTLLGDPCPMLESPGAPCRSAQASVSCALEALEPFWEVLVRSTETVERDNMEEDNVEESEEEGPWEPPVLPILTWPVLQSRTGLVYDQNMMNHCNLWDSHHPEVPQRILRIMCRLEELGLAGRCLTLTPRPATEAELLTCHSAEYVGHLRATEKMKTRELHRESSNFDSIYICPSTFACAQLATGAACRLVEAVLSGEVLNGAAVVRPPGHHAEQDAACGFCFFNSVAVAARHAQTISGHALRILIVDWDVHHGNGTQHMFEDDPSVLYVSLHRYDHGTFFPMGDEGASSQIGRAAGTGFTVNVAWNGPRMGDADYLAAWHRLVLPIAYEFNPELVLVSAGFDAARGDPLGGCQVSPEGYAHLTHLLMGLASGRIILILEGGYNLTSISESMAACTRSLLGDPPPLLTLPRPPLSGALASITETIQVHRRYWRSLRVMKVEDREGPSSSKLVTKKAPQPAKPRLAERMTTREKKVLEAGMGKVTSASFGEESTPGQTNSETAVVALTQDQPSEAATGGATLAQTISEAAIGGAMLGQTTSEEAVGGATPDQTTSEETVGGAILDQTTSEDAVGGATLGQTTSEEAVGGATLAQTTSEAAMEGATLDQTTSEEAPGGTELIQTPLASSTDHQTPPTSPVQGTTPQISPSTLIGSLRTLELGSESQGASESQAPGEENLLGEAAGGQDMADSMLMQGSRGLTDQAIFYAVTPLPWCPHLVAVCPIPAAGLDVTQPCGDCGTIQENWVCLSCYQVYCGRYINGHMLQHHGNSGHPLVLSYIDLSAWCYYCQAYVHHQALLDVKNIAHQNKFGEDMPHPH

| IC50 (HCT-116) [µM] | IC50 (A549 [1]) [µM] | IC50 (HepG2) [µM] | IC50 (MGC-803) [µM] | Compound | further results |
| --- | --- | --- | --- | --- | --- |
| > 32 | 24.4 | > 32 | > 32 | Nc1ccccc1NC(=O)c1ccc(COc2ccc(Br)cc2)cc1 | – |
| 3.23 | 5.21 | 4.75 | 4.42 | CCCc1ccc(OCc2ccc(C(=O)Nc3ccccc3N)cc2)cc1 | – |
| > 32 | > 32 | > 32 | > 32 | Nc1ccccc1NC(=O)c1ccc(COc2ccc([N+](=O)[O-])cc2)cc1 | – |
| 3.86 | 5.37 | 3.84 | 4.97 | Nc1ccccc1NC(=O)c1ccc(COc2ccc(F)cc2)cc1 | Activity (A549 [2]): 84.93%; Activity (A549 [3]): 37.74%; Activity (A549 [4]): 6.1%; Activity (A549 [5]): 35.52%; Activity (A549 [6]): 8.23%; viability at 4 µM (A549 [7]): 70.9%; Activity (A549 [8]): 28.88%; IC50 (Histone deacetylase 2): 0.57 µM; Activity (A549 [9]): 14.37%; viability at 8 µM (A549 [10]): 29.7%; Activity (A549 [11]): 8.97%; Activity (A549 [12]): 54.03%; Activity (A549 [16]): Dose-dependent effect; IC50 (Histone deacetylase 1): 1.27 µM; Activity (A549 [13]): 10.93%; inhibition (A549 [17]): Dose-dependent effect; Activity (A549 [18]): Dose-dependent effect; Activity (A549 [14]): 3.74%; IC50 [19]: > 40 µM; Activity (A549 [15]): 6.34% |
| 17.3 | > 32 | > 32 | > 32 | Nc1ccccc1NC(=O)c1ccc(COc2ccc(Cl)cc2)cc1 | – |
| – | 8.34 | 7.02 | 6.02 | Nc1cc(F)ccc1NC(=O)c1ccc(COc2ccccc2)cc1 | – |
| 4.83 | 6.42 | 6.96 | 5.88 | CCc1ccc(OCc2ccc(C(=O)Nc3ccccc3N)cc2)cc1 | – |
| 2.02 | 5.53 | 4.2 | 3.48 | COc1ccc(OCc2ccc(C(=O)Nc3ccccc3N)cc2)cc1 | inhibition (A549 [17]): Dose-dependent effect |
| 4.57 | 7.46 | > 32 | > 32 | CC(C)c1ccc(OCc2ccc(C(=O)Nc3ccccc3N)cc2)cc1 | – |
| 4.86 | 5.43 | 6.59 | 6.53 | Cc1ccc(OCc2ccc(C(=O)Nc3ccccc3N)cc2)cc1 | – |

The remaining lines, values behind:

| Compound | IC50 (HCT-116) [µM] | IC50 (A549 [1]) [µM] | IC50 (HepG2) [µM] | IC50 (MGC-803) [µM] | further results |
| --- | --- | --- | --- | --- | --- |
| C/C(=N\O)c1ccc(OCc2ccc(C(=O)NO)cc2)cc1 | – | 8.93 | 7.77 | – | – |
| O=C(NO)c1ccc(COc2ccccc2)cc1 | – | 28 | 29.6 | – | – |
| CC(=O)Nc1ccc(C(=O)Nc2ccccc2N)cc1 [TACEDINALINE] | 7.71 | 20.1 | 18.5 | 11.6 | Activity (A549 [2]): 81.59%; Activity (A549 [3]): 6.02%; Activity (A549 [4]): 9.31%; Activity (A549 [5]): 7.82%; Activity (A549 [6]): 4.66%; viability at 4 µM (A549 [7]): 85.7%; Activity (A549 [8]): 4.76%; Activity (A549 [9]): 6.96%; viability at 8 µM (A549 [10]): 85.6%; Activity (A549 [11]): 9.1%; Activity (A549 [12]): 89.32%; Activity (A549 [13]): 4.39%; Activity (A549 [14]): 2.91%; Activity (A549 [15]): 1.8% |
| Nc1ccc(F)cc1NC(=O)c1ccc(CNC(=O)/C=C/c2cccnc2)cc1 | 2.28 | 11 | 22.7 | 6.44 | Activity (A549 [2]): 80.14%; Activity (A549 [3]): 6.46%; Activity (A549 [4]): 10.02%; Activity (A549 [5]): 13.48%; Activity (A549 [6]): 7.87%; viability at 4 µM (A549 [7]): 81.6%; Activity (A549 [8]): 8.94%; Activity (A549 [9]): 10.55%; viability at 8 µM (A549 [10]): 75.5%; Activity (A549 [11]): 9.84%; Activity (A549 [12]): 85.67%; Activity (A549 [13]): 6.27%; Activity (A549 [14]): 1.52%; Activity (A549 [15]): 2.1% |
| Nc1ccccc1NC(=O)/C=C/c1ccc(CN2CCc3ccccc3C2)cc1 | – | – | 13.5 | 14.2 | – |
| Nc1ccccc1NC(=O)/C=C/c1ccc(CN2CCc3ccccc32)cc1 | – | 13.4 | > 32 | > 32 | – |
| O=C(/C=C/c1ccc(COc2ccccc2)cc1)NO | – | 5.77 | 8.4 | – | – |
| Nc1ccccc1NC(=O)c1ccc(CN2CCc3cc(Br)ccc32)cc1 | – | – | 10.7 | 7.39 | – |
| O=C(/C=C/c1ccc(CN2CCc3ccccc32)cc1)NO | – | 5.48 | 14.9 | – | – |
| Nc1ccccc1NC(=O)c1ccc(COc2ccccc2)cc1 | 4.89 | 6.76 | 6.7 | 5.67 | – |
| Nc1cnccc1NC(=O)/C=C/c1ccc(COc2ccccc2)cc1 | – | > 32 | > 32 | > 32 | – |
| Nc1ccccc1NC(=O)/C=C/c1ccc(COc2ccccc2)cc1 | – | > 32 | > 32 | > 32 | – |
